Peptide text beside a SMILES is read from it.

Series [1] has as its system Pseudomonas syringae pv tomato, DC3000. The series can be described thus: Arabidopsis inoculated with virulent pathogen Pst DC3000, disease symptoms. Particulars: 20 μl salicylic acid 1 mM and 20 μl SEQ ID NO: 15 applied together to the leaves. Format: in vivo, Arabidopsis ecotype Columbia (Col-0). The protocol: Seeds of Arabidopsis ecotype Columbia (Col-0) were planted in potting soil. Plants were cultivated in a growth chamber with 10-h d (200 μmol m^−2s^−1 at 22° C.) and 14-h night (18° C.) cycles and 80% RH. Once a week plants were supplied with water and modified one-half strength Hoagland nutrient solution: 2 mM KNO 5 mM Ca(NO3)2 and trace elements, pH 7.
A virulent plant pathogen, Pst Pseudomonas syringae pv tomato, DC3000 was grown at 28° C. on King's medium B containing 40 mg/L tetracycline. Plants were inoculated with 1×10^7 cfu/ml of the pathogen in 0.01% Silwet L77 (v/v) (a surfactant) and distilled water 5 weeks after sowing. The bacterial suspension or a control solution (0.01% Silwet L77 in water) was then sprayed on the plant once.
Disease symptoms in Arabidopsis are water-soaked, spreading lesions, sometimes surrounded by chlorotic margin that eventually lead to yield loss and plant death.
To test the efficacy of SEQ ID NO: 15, some healthy and some disease plants were sprayed with salicylic acid in 0.01%. Silwet L77; some healthy and some disease plants were sprayed with SEQ ID NO: 15 in 0.01%. Silwet L77, and some healthy and some disease plants were sprayed with salicylic acid in combination with SEQ ID NO: 15 in 0.01%. Silwet L77. A control group of some healthy and some disease plants were sprayed with water in 0.01%. Silwet L77. […]

Series [2] relates to Sauromatum guttatum appendix. Description: Heat production by Sauromatum guttatum appendix sections, thermocouple recording. The following applies: second experiment, up to 50 μM, data not shown. The protocol:
In one example, using Sauromatum guttatum as the experimental module, on the day of inflorescence-opening, the Sauromatum appendix (a 20-40 cm-long, slender organ) becomes warm reaching a 32° C. temperature (Skubatz et al., 1991, Plant Physiol. 95:1084-1088). The heat generated by the appendix is generated by the mitochondria. This mitochondrial activity can be triggered by the addition of phenolic compounds, including but not limited to, salicylic acid, aspirin, and 2,6-dihydroxybenzoic acid. Test agents can be applied to the plant and the plant's temperature may be monitored in vivo.
FIG. 4 illustrates modulation of heat generated by aspirin (ASA) in Sauromatum guttatum appendix in the presence of various opioid peptides and the Alzheimer's peptide, Aβ 1-42. One day before heat-production, sections of the appendix were placed in different aqueous solutions containing ASA with or without an opioid peptide. […] Temperature was recorded with thermocouples attached to the section every 5 min. […]
FIG. 5 illustrates modulation of heat generated by salicylic acid (SA) in the presence of human opioid peptides (β-Endorphin, SEQ ID NO: 19 and Neuropeptide AF, SEQ ID NO: 44) and, the Alzheimer's peptide, Aβ 1-42, SEQ ID NO: 49, and, a plant virulent bacterial pathogen (Pst DC3000). […] Temperature was recorded with thermocouples attached to the sections every 5 min. […]

Series [3] is classed as physicochemical. As to the method:
The test article was SEQ ID NO: 1, a white powder, which was delivered in 0.9% saline. The test article formulations were prepared on the day of study and kept at room temperature until dosing. 100 mg/kg at 1 mL/kg=100 mg/mL 1.4 mL of saline added to 141.5 mg of test article, soluble.

For series [4] the following is noted: rat, in vivo. The source says:
Pain is basically managed by two classes of drugs.

For the molecule YGGFL [SEQ ID NO: 15], the “systemic resistance to the virulent bacteria” value in series [1] is reported as “enough to trigger systemic resistance”.

As for FLPSEFGVDVDR [SEQ ID NO: 2], in series [2], the “heat generation by the peptide” value is reported as “did not generate heat”.

Consider `CC(C)C[C@H](NC(=O)[C@@H](N)Cc1ccccc1)C(=O)N1CCC[C@H]1C(=O)N[C@@H](CO)C(=O)O` [SEQ ID NO: 1, Phe-Leu-Pro-Ser] (H-FLPS-OH; N-terminus and C-terminus assumed), for which, in series [3], the solubility in saline entry is recorded as “soluble”. For the same molecule, in series [4], the “effect on brain function” value was “does not adversely affect brain function” and the feeding behavior entry is reported as “did not invoke an abnormal feeding behavior”. As for `O=C(O)c1ccccc1O` [salicylic acid], the “systemic resistance to the virulent bacteria” value in series [1] is “enough to trigger systemic resistance”.

(Values after patent publication US20090069237A1, “METHODS AND COMPOSITIONS FOR TREATING CONDITIONS” (priority 2007, published 2009).)
